Results on 32 molecules are retold here after patent US8895585B2, “Nicotinamide derivative or salt thereof” (FUJIFILM Corporation, priority 2010, dated 2014).

Like-named read-outs stand apart in the source and are kept apart here.

For test [1], the system named is THP-1 cells. Briefly: TNFα generation assay. Format: cell-based, human. As to conditions: Table 22, read-out: IC50 in TNFα generation assay. The gist of the method: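 Secreted TNFα in supernatant quantified by ELISA or AlphaLISA after 7 h culture on human IgG-coated wells (10 μg/ml coating). Cells were IFN-γ-differentiated THP-1 (10 ng/ml, 2 days), exposed to compound for 30 min at room temperature before plating.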

The target of test [2] is T1, glutathione S-transferase (GST)-fused full-length human Syk protein (Homo sapiens, UniProt P43405).
T1 construct: (GST)-fused full-length human Syk protein; GST (glutathione S-transferase); purchased Carna Biosciences
Briefly: Syk enzyme assay. The class given is biochemical. As to conditions: Syk enzyme assay, Test Example 1; read-out: IC50 of Syk-inhibitory activity. In a few lines:
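Baculovirus-expressed enzyme (1.2 ng) was preincubated with compound in HEPES pH 7.0/MgCl2/DTT buffer, 2 min shaking then 13 min at room temperature. Biotin-EDPDYEWPSA-NH2 (0.4 μM final) and ATP (27 μM final) were added for 40 min at room temperature. EDTA stop, streptavidin-XL/PT66-K TR-FRET at 615/665 nm gave IC50.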

[3] abbreviates: Homo sapiens, THP-1, THP-1 cells.

Consider `CC[C@H](N)[C@@H](CC)Nc1nc(Nc2cncc(C3CC3)c2)c(C(N)=O)cc1F` [Example 006-378, 6-(((3R,4S)-4-aminohexan-3-yl)amino)-2-((5-cyclopropylpyridin-3-yl)amino)-5-fluoronicotinamide], for which the IC50 in test [1] (setting [3]) is 65 to 130 nM; in test [2], less than 10 nM.
Turning to `NC(=O)c1cc(F)c(N[C@@H]2CCCC[C@@H]2N)nc1Nc1cncc(-c2ccccc2F)c1` [Example 006-166, 6-(((1R,2S)-2-aminocyclohexyl)amino)-5-fluoro-2-((5-(2-fluorophenyl)pyridin-3-yl)amino)fluoronicotinamide], the IC50 in test [1] (THP-1 cells) was less than 65 nM; in test [2], less than 10 nM.
On to `NC(=O)c1cc(F)c(N[C@@H]2CCCC[C@@H]2N)nc1Nc1ccc2cnccc2c1` (relative stereo) [Example 004-163, 6-(cis-2-aminocyclohexylamino)-5-fluoro-2-((isoquinolin-6-yl)amino)nicotinamide], for which the values for the IC50 in test [1] (setting [3]) and in test [2] were less than 65 nM and less than 10 nM, respectively.
For `COC(=O)c1cncc(Nc2nc(N[C@@H]3CCCC[C@@H]3N)c(F)cc2C(N)=O)c1` [Example 004-016], the IC50 in test [1] (setting [3]) was 65 to 130 nM; in test [2] it was less than 10 nM.
`CCc1nn(C)c2ccc(Nc3nc(N[C@H](C4CC4)[C@H](C)N)c(F)cc3C(N)=O)cc12` [Example 006-578, 6-(((1R,2S)-2-amino-1-cyclopropylpropyl)amino)-2-((3-ethyl-1-methyl-1H-indazol-5-yl)amino)-5-fluoronicotinamide]: the IC50 in test [1] (setting [3]) was 65 to 130 nM; in test [2] it was less than 10 nM.
On the same counts, the results for `CC[C@@H](Nc1nc(Nc2cnc(C)c(C3CC3)c2)c(C(N)=O)cc1F)[C@H](C)N` [Example 006-272, 6-(((2S,3R)-2-aminopentan-3-yl)amino)-2-((5-cyclopropyl-6-methylpyridin-3-yl)amino)-5-fluoronicotinamide] are 65 to 130 nM and 10 to 50 nM.
In the same order, the values of `CC[C@@H](Nc1nc(Nc2ccnc(-c3ccccc3F)c2)c(C(N)=O)cc1F)[C@H](C)N` [Example 006-329, 6-(((2S,3R)-2-aminopentan-3-yl)amino)-5-fluoro-2-((2-(2-fluorophenyl)pyridin-4-yl)amino)nicotinamide] are less than 65 nM and less than 10 nM.
In the same order, the values of `C[C@H](N)[C@@H](CC1CC1)Nc1nc(Nc2ccc3c(cnn3CCF)c2)c(C(N)=O)cc1F` [Example 006-420, 6-(((2R,3S)-3-amino-1-cyclopropylbutan-2-yl)amino)-5-fluoro-2-((1-(2-fluoroethyl)-1H-indazol-5-yl)amino)nicotinamide] are 65 to 130 nM and less than 10 nM.
As to `COc1ccc(-c2cc(Nc3nc(NC4CCCCC4N)c(F)cc3C(N)=O)ccn2)c(F)c1` (stereo not shown) [Example 002-140], the IC50 was 130 to 200 nM in test [1] (setting [3]) and less than 10 nM in test [2].
In the same order, the values of `NC(=O)c1cc(F)c(N[C@@H]2CCCC[C@@H]2N)nc1Nc1cccc2cnccc12` (relative stereo) [Example 004-159, 6-(cis-2-aminocyclohexylamino)-5-fluoro-2-((isoquinolin-5-yl)amino)nicotinamide] are 65 to 130 nM and less than 10 nM.
Take `CCC[C@@H](Nc1nc(Nc2ccc3c(OC)nccc3c2)c(C(N)=O)cc1F)[C@H](C)N` [Example 006-239, 6-(((2S,3R)-2-aminohexan-3-yl)amino)-5-fluoro-2-((1-methoxyisoquinolin-6-yl)amino)nicotinamide]: the IC50 in test [1] (setting [3]) was less than 65 nM; in test [2], less than 10 nM.
`Cc1nn(CC(F)F)c2ccc(Nc3nc(NC4CCCCC4N)c(F)cc3C(N)=O)cc12` (stereo not shown) [Example 002-210]: the values for the IC50 in test [1] (setting [3]) and in test [2] were 65 to 130 nM and less than 10 nM, respectively.
In the case of `COc1ccc2cc(Nc3nc(N[C@H](CC(C)C)[C@H](C)N)c(F)cc3C(N)=O)cnc2c1` [Example 006-206, 6-(((2S,3R)-2-amino-5-methylhexan-3-yl)amino)-5-fluoro-2-((7-methoxyquinolin-3-yl)amino)nicotinamide], the IC50 in test [1] (setting [3]) was 130 to 200 nM; in test [2], less than 10 nM.
In the same order, the values of `CCC[C@@H](Nc1nc(Nc2ccc3c(cnn3C)c2)c(C(N)=O)cc1F)[C@@H](N)CC` [Example 006-398, 6-(((3S,4R)-3-aminoheptan-4-yl)amino)-5-fluoro-2-((1-methyl-1H-indazol-5-yl)amino)nicotinamide] are 65 to 130 nM and less than 10 nM.
Consider `NC(=O)c1cc(F)c(NC2CCCCC2N)nc1Nc1cncc(-c2ccc3ccncc3c2)c1` (stereo not shown) [Example 002-191], for which the figures for the IC50 in test [1] (setting [3]) and in test [2] were 65 to 130 nM and less than 10 nM, respectively.
In the same order, the values of `C[C@H](N)[C@@H](C)Nc1nc(Nc2ccc3scnc3c2)c(C(N)=O)cc1F` (racemic) [Example 006-188, 6-(((2R,3S)-3-aminobutan-2-yl)amino)-2-(benzo[d]thiazol-5-ylamino)-5-fluoronicotinamide 6-(((2S,3R)-3-aminobutan-2-yl)amino)-2-(benzo[d]thiazol-5-ylamino)-5-fluoronicotinamide] are 65 to 130 nM and less than 10 nM.
Consider `Cn1ccc2c(Nc3nc(N[C@@H]4CCCC[C@@H]4N)c(F)cc3C(N)=O)cncc21` [Example 004-006], for which the values for the IC50 in test [1] (setting [3]) and in test [2] were 65 to 130 nM and less than 10 nM, respectively.
In the same order, the values of `C[C@H](N)[C@@H](C)Nc1nc(Nc2ccc3cccnc3c2)c(C(N)=O)cc1F` (racemic) [Example 006-182, 6-(((2R,3S)-3-aminobutan-2-yl)amino)-5-fluoro-2-((quinolin-7-yl)amino)nicotinamide 6-(((2S,3R)-3-aminobutan-2-yl)amino)-5-fluoro-2-((quinolin-7-yl)amino)nicotinamide] are 130 to 200 nM and less than 10 nM.
For `NC(=O)c1cc(F)c(NC2CCCCC2N)nc1Nc1ccc2c(cnn2CC(F)F)c1` (stereo not shown) [Example 002-187], the IC50 in test [1] (setting [3]) was less than 65 nM; in test [2] it was less than 10 nM.
On the same counts, the results for `Cc1ncc(Nc2nc(N[C@H](CC3CC3)[C@H](C)N)c(F)cc2C(N)=O)cc1-n1nccn1` [Example 006-374, 6-(((2R,3S)-3-amino-1-cyclopropylbutan-2-yl)amino)-5-fluoro-2-((6-methyl-5-(2H-1,2,3-triazol-2-yl)pyridin-3-yl)amino)nicotinamide] are 130 to 200 nM and 10 to 50 nM.
On the same counts, the results for `CCn1ncc2c(Nc3nc(NC4CCCCC4N)c(F)cc3C(N)=O)cccc21` (stereo not shown) [Example 002-186] are 65 to 130 nM and less than 10 nM.
On the same counts, the results for `Cc1nn(CCF)c2ccc(Nc3nc(NC4CCCCC4N)c(F)cc3C(N)=O)cc12` (stereo not shown) [Example 002-209] are 65 to 130 nM and less than 10 nM.
As for `CN(C)CCCn1ccc2c(Nc3nc(N[C@@H]4CCCC[C@@H]4N)c(F)cc3C(N)=O)ccnc21` [Example 004-030], the IC50 in test [1] (setting [3]) was 130 to 200 nM; in test [2], less than 10 nM.
On the same counts, the results for `CC[C@@H](Nc1nc(Nc2ccc3c(cnn3CCF)c2)c(C(N)=O)cc1F)[C@H](C)N` [Example 006-416, 6-(((2S,3R)-2-aminopentan-3-yl)amino)-5-fluoro-2-((1-(2-fluoroethyl)-1H-indazol-5-yl)amino)nicotinamide] are 65 to 130 nM and less than 10 nM.
In the same order, the values of `CCc1cncc(Nc2nc(NC3CCCCC3N)c(F)cc2C(N)=O)c1` (stereo not shown) [Example 002-038] are 65 to 130 nM and less than 10 nM.
As for `CC[C@@H](Nc1nc(Nc2cncc(-c3cccc(OC)c3)c2)c(C(N)=O)cc1F)[C@H](C)N` [Example 006-276, 6-(((2S,3R)-2-aminopentan-3-yl)amino)-5-fluoro-2-((5-(3-methoxyphenyl)pyridin-3-yl)amino)nicotinamide], the values for the IC50 in test [1] (setting [3]) and in test [2] were less than 65 nM and less than 10 nM, respectively.
`CCn1ncc2ccc(Nc3nc(N[C@H](C4CC4)[C@H](C)N)c(F)cc3C(N)=O)cc21` [Example 006-581, 6-(((1R,2S)-2-amino-1-cyclopropylpropyl)amino)-2-((1-ethyl-1H-indazol-6-yl)amino)-5-fluoronicotinamide]: the IC50 is less than 65 nM in test [1] (setting [3]) and less than 10 nM in test [2].
In the same order, the values of `NC(=O)c1cc(F)c(NC2CCCCC2N)nc1Nc1cncc(-c2ccc3cccnc3c2)c1` (stereo not shown) [Example 002-189] are 65 to 130 nM and less than 10 nM.
On the same counts, the results for `NC(=O)c1cc(F)c(N[C@@H]2CCCC[C@@H]2N)nc1Nc1cnc2ccccc2c1` [Example 37-4, 6-((1R,2S)-2-aminocyclohexylamino)-5-fluoro-2-((quinolin-3-yl)amino)nicotinamide] are less than 65 nM and less than 10 nM.
In the same order, the values of `Cn1nc(F)c2ccc(Nc3nc(NC4CCCCC4N)c(F)cc3C(N)=O)cc21` (stereo not shown) [Example 002-198] are 65 to 130 nM and less than 10 nM.
For the molecule `C[C@H](N)[C@@H](CC1CC1)Nc1nc(Nc2cncc3ccccc23)c(C(N)=O)cc1F` [Example 006-354, 6-(((2R,3S)-3-amino-1-cyclopropylbutan-2-yl)amino)-5-fluoro-2-((isoquinolin-4-yl)amino)nicotinamide], the IC50 is 65 to 130 nM in test [1] (setting [3]) and less than 10 nM in test [2].
On the same counts, the results for `NC(=O)c1cc(F)c(NCC(N)C2CC2)nc1Nc1ccc2ncccc2c1` (stereo not shown) [Example 014-013, 6-((2-amino-2-cyclopropylethyl)amino)-5-fluoro-2-((quinolin-6-yl)amino)nicotinamide] are 130 to 200 nM and 10 to 50 nM.
